In ChEMBL document CHEMBL1201862, “PubChem BioAssay data set” (2004):
Active and inactive are the calls of the source. Rule as the data show it: actives have a measured IC50 and inactives only a lower limit.

Target: Envelope glycoprotein gp160 (Human immunodeficiency virus 1, UniProt Q6QLK5)
Assay: cell-free HIV fusion peptide-binding blockers – biochemical, uHTS, fluorescence dequenching, […] (AID 1986)

Envelope glycoprotein gp160, sequence (Q6QLK5 whole entry, the tested form may be a part): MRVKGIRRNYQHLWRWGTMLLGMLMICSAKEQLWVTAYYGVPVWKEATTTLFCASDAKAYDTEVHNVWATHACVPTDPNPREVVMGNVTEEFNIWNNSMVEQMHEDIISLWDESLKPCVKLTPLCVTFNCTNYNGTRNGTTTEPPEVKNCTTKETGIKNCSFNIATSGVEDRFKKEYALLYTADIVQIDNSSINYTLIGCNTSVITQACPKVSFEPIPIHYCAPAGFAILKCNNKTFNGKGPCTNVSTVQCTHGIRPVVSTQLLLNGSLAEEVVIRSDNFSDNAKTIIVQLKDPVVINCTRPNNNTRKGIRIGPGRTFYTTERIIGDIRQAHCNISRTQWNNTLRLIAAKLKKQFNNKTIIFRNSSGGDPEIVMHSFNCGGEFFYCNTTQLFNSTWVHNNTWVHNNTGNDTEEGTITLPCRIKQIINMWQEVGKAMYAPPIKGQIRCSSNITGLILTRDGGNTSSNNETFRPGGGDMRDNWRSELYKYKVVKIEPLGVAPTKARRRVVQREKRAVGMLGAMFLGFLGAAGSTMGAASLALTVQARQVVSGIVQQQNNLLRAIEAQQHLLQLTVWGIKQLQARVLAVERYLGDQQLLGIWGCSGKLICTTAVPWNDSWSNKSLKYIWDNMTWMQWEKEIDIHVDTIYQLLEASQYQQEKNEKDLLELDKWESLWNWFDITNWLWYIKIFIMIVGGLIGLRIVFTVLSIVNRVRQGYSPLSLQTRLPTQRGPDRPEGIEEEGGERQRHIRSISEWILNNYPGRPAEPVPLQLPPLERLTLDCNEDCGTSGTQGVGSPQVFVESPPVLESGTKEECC

COc1ccc(/C=C2/SC(=S)N(CC(=O)O)C2=O)cc1OCc1ccc(Cl)cc1
IC50: 16.5 µM (active)

COC(=O)c1sc(-c2ccc(C(C)(C)C)cc2)cc1NC(=O)c1ccccc1C(=O)O
IC50: 18.5 µM (active)
